Laboratory results taken from ChEMBL document CHEMBL5390272, “Discovery of a potent and selective human AC2 inhibitor based on 7-deazapurine analogues of adefovir” (Bioorg Med Chem, 2023).

What was measured:
HepG2 = experiment: Cytotoxicity against human HepG2 cells by CellTiter-Glo 2.0 assay; type: functional, cell-based
NHDF = experiment: Cytotoxicity against human NHDF cells by CellTiter-Glo 2.0 assay; type: toxicity, cell-based
HeLa S3 = experiment: Cytotoxicity against human HeLa S3 cells by CellTiter-Glo 2.0 assay; type: functional, cell-based
HL-60 = experiment: Cytotoxicity against human HL-60 cells by CellTiter-Glo 2.0 assay; type: functional, cell-based
[1] = Inhibition of Bordetella pertussis Adenylate cyclase toxin in mouse J774.A1 cells preincubated for 5 hrs followed by ACT addition and measured after 30 mins by CatchPointcAMP immunoassay method; type: cell-based
HEK293 = experiment: Cytotoxicity against AC1 expressed HEK293 cells by CellTiter-Glo 2.0 assay relative to control; type: toxicity, cell-based; set-up: concentration or dose not given beside the values; details: human
[2] = Cytotoxicity against mouse J774.A1 cells assessed as cell viability at 10 uM incubated for 5 hrs by Cell Titer-Glo Luminescent Cell Viability assay relative to control; type: toxicity, cell-based; details: read-out: Activity
CCRF-CEM = experiment: Cytotoxicity against human CCRF-CEM cells by CellTiter-Glo 2.0 assay; type: functional, cell-based
[3] = target: T1, Calmodulin-sensitive adenylate cyclase (Bacillus anthracis, UniProt P40136); experiment: Inhibition of Bacillus anthracis Edema factor
T1 sequence (P40136 whole entry): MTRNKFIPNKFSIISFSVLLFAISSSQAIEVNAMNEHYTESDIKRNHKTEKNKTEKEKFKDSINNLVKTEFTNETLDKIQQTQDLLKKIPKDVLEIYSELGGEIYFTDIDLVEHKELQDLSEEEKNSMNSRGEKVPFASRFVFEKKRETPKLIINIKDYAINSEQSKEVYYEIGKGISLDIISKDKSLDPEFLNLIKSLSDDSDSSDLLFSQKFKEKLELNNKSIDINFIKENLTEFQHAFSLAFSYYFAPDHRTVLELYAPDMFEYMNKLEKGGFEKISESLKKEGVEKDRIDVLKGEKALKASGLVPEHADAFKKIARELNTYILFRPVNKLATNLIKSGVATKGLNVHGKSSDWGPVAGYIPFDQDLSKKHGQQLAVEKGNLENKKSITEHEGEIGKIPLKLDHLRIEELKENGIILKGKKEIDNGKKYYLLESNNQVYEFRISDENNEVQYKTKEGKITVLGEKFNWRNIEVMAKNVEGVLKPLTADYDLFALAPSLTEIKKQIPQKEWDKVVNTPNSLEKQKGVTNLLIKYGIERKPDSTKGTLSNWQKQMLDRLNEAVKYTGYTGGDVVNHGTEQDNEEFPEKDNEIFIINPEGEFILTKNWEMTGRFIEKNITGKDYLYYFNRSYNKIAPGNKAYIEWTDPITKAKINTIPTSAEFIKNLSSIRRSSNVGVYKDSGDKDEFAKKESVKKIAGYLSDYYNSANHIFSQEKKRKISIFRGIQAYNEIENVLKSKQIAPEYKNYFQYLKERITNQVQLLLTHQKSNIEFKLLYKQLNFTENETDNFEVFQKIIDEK

SMILES	IC50 (HepG2)	IC50 (NHDF)	IC50 (HeLa S3)	IC50 (HL-60)	IC50 [1]	Activity (HEK293)	viability at 5 h, 10 µM [2]	IC50 (CCRF-CEM)	IC50 [3]
C=C(C)c1cn(CCOCP(=O)(N[C@@H](Cc2ccccc2)C(=O)OC(C)C)N[C@@H](Cc2ccccc2)C(=O)OC(C)C)c2ncnc(N)c12	8.73 µM	> 10 µM	> 10 µM	4.62 µM	> 10 µM	31%	81%	5.64 µM	
CC(C)OC(=O)[C@H](Cc1ccccc1)NP(=O)(COCCn1cc(C(C)C)c2c(N)ncnc21)N[C@@H](Cc1ccccc1)C(=O)OC(C)C	> 10 µM	> 10 µM	> 10 µM	7.34 µM	> 10 µM	51%	121%	6.54 µM	
CC(C)OC(=O)[C@H](Cc1ccccc1)NP(=O)(COCCn1cc(-c2cccc(C(N)=O)c2)c2c(N)ncnc21)N[C@@H](Cc1ccccc1)C(=O)OC(C)C	> 10 µM	> 10 µM	> 10 µM	5.75 µM	2.5 µM	94%	85%	> 10 µM	
CC(C)OC(=O)[C@H](Cc1ccccc1)NP(=O)(COCCn1cc(-c2cccc(C#N)c2)c2c(N)ncnc21)N[C@@H](Cc1ccccc1)C(=O)OC(C)C	9.43 µM	> 10 µM	10.1 µM	3.22 µM	1.42 µM	29%	111%	3.85 µM	
CC(C)OC(=O)[C@H](Cc1ccccc1)NP(=O)(COCCn1cc(-c2ccccc2)c2c(N)ncnc21)N[C@@H](Cc1ccccc1)C(=O)OC(C)C	6.58 µM	> 10 µM	5.28 µM	4.73 µM	13.3 µM	-18%	82%	4.74 µM	
CC(C)OC(=O)[C@H](Cc1ccccc1)NP(=O)(COCCn1cc(-c2ccc([N+](=O)[O-])cc2)c2c(N)ncnc21)N[C@@H](Cc1ccccc1)C(=O)OC(C)C	> 10 µM	> 10 µM	2.95 µM	4.58 µM	1.26 µM	97%	113%	4.08 µM	
Cc1cn(CCOCP(=O)(O)OP(=O)(O)OP(=O)(O)O)c2ncnc(N)c12					0.062 µM				0.108 µM
CCOC(=O)[C@H](C)NP(=O)(COCCn1cc(-c2ccc(OC)cc2)c2c(N)ncnc21)Oc1ccccc1 (stereo partly specified)	> 10 µM	> 10 µM	> 10 µM	> 10 µM	5.41 µM		104%	> 10 µM	
CC(C)OC(=O)[C@H](Cc1ccccc1)NP(=O)(COCCn1cc(-c2ccccn2)c2c(N)ncnc21)N[C@@H](Cc1ccccc1)C(=O)OC(C)C	> 10 µM	> 10 µM	7.86 µM	5.18 µM	1.06 µM	-17%	104%	5.77 µM	
CC(C)OC(=O)[C@H](Cc1ccccc1)NP(=O)(COCCn1cc(-c2cccc(-c3nn[nH]n3)c2)c2c(N)ncnc21)N[C@@H](Cc1ccccc1)C(=O)OC(C)C	> 10 µM	> 10 µM	> 10 µM	> 10 µM	> 10 µM	110%	94%	> 10 µM	
COc1ccc(-c2cn(CCOCP(=O)(N[C@@H](Cc3ccccc3)C(=O)OC(C)C)N[C@@H](Cc3ccccc3)C(=O)OC(C)C)c3ncnc(N)c23)cc1	> 10 µM	> 10 µM		6.52 µM	1.49 µM	-17%	112%	5.81 µM	
Cc1cn(CCOCP(=O)(N[C@@H](Cc2ccccc2)C(=O)OC(C)C)N[C@@H](Cc2ccccc2)C(=O)OC(C)C)c2ncnc(N)c12	9.73 µM	> 10 µM	> 10 µM	7.33 µM	1.47 µM	93%	112%	> 10 µM	
CC(C)OC(=O)[C@H](Cc1ccccc1)NP(=O)(COCCn1cc(C#Cc2ccccc2)c2c(N)ncnc21)N[C@@H](Cc1ccccc1)C(=O)OC(C)C	7.24 µM	> 10 µM	5.3 µM	4.75 µM	> 10 µM	-9%	116%	4.49 µM	
Nc1ncnc2c1c(-c1ccccn1)cn2CCOCP(=O)(O)OP(=O)(O)OP(=O)(O)O					0.108 µM				0.0508 µM
CC(C)OC(=O)[C@H](Cc1ccccc1)NP(=O)(COCCn1cc(-c2cccs2)c2c(N)ncnc21)N[C@@H](Cc1ccccc1)C(=O)OC(C)C	1.02 µM	0.4 µM	1.09 µM	0.56 µM		-9%	36%	0.79 µM	
COc1ccc(-c2cn(CCOCP(=O)(O)OP(=O)(O)OP(=O)(O)O)c3ncnc(N)c23)cc1					0.186 µM				0.0884 µM
CC(C)OC(=O)[C@H](Cc1ccccc1)NP(=O)(COCCn1cc(-c2cccc(C(=O)O)c2)c2c(N)ncnc21)N[C@@H](Cc1ccccc1)C(=O)OC(C)C	> 10 µM	> 10 µM	> 10 µM	> 10 µM	6.09 µM	115%	104%	> 10 µM	
CC(C)OC(=O)[C@H](Cc1ccccc1)NP(=O)(COCCn1cc(-c2cccc(S(N)(=O)=O)c2)c2c(N)ncnc21)N[C@@H](Cc1ccccc1)C(=O)OC(C)C	> 10 µM	> 10 µM	> 10 µM	4.8 µM	3.41 µM	110%	114%	5.56 µM	
CCc1cn(CCOCP(=O)(N[C@@H](Cc2ccccc2)C(=O)OC(C)C)N[C@@H](Cc2ccccc2)C(=O)OC(C)C)c2ncnc(N)c12	> 10 µM	> 10 µM	> 10 µM	7.89 µM	> 10 µM	90%	125%	> 10 µM	
CC(C)OC(=O)[C@H](Cc1ccccc1)NP(=O)(COCCn1cc(-c2ccco2)c2c(N)ncnc21)N[C@@H](Cc1ccccc1)C(=O)OC(C)C	0.99 µM	0.35 µM	1.29 µM	0.66 µM		-9%	43%	0.99 µM	
CC(C)OC(=O)[C@H](Cc1ccccc1)NP(=O)(COCCn1cc(-c2cncnc2)c2c(N)ncnc21)N[C@@H](Cc1ccccc1)C(=O)OC(C)C	> 10 µM	> 10 µM	> 10 µM	> 10 µM	> 10 µM	102%	128%	> 10 µM	
COc1ccc(-c2cn(CCOCP(=O)(OCOC(=O)C(C)(C)C)OCOC(=O)C(C)(C)C)c3ncnc(N)c23)cc1	> 10 µM	> 10 µM	> 10 µM	> 10 µM	10.2 µM		85%	> 10 µM	
CC(C)OC(=O)[C@H](Cc1ccccc1)NP(=O)(COCCn1cc(-c2cccc(NS(C)(=O)=O)c2)c2c(N)ncnc21)N[C@@H](Cc1ccccc1)C(=O)OC(C)C	> 10 µM	> 10 µM	15.2 µM	7.08 µM	2.95 µM	98%	87%	6.92 µM	
COc1cccc(-c2cn(CCOCP(=O)(N[C@@H](Cc3ccccc3)C(=O)OC(C)C)N[C@@H](Cc3ccccc3)C(=O)OC(C)C)c3ncnc(N)c23)c1	13.9 µM	> 10 µM	9.16 µM	5.47 µM	4.8 µM	-14%	94%	4.85 µM	
COc1ccccc1-c1cn(CCOCP(=O)(N[C@@H](Cc2ccccc2)C(=O)OC(C)C)N[C@@H](Cc2ccccc2)C(=O)OC(C)C)c2ncnc(N)c12	4.57 µM	> 10 µM	3.65 µM	6.61 µM	2.17 µM	-12%	112%	6.2 µM	
C#Cc1cn(CCOCP(=O)(N[C@@H](Cc2ccccc2)C(=O)OC(C)C)N[C@@H](Cc2ccccc2)C(=O)OC(C)C)c2ncnc(N)c12	7.9 µM	> 10 µM	> 10 µM	6.46 µM	> 10 µM	85%	129%	5.77 µM	
Nc1ncnc2c1ncn2CCOCP(=O)(O)OP(=O)(O)OP(=O)(O)O [ADEFOVIR DIPHOSPHATE]									0.0135 µM
